Values after ≈ are worked out from the molar mass of the structure shown.
How the values were obtained:
Haemophilus influenzae = assay: Antibacterial activity against Haemophilus influenzae (HI1008); format: functional
Moraxella catarrhalis = assay: Antibacterial activity against Moraxella catarrhalis (MC1002); format: functional

With `O=C(O)c1cn(C2CC2)c2cc(N3CCNCC3)c(F)cc2c1=O` [CIPROFLOXACIN] the MIC (Haemophilus influenzae) was ≤ 0.06 µg/mL and the MIC (Moraxella catarrhalis) was 0.03 µg/mL (≈ 0.0905 µM).
